Source: ChEMBL document CHEMBL1155952, “4-Amino-6-arylamino-pyrimidine-5-carbaldehyde hydrazones as potent ErbB-2/EGFR dual kinase inhibitors” (Bioorg Med Chem Lett, 2008)

Key:
[1] = Plasma concentration in Sprague-Dawley rat at 10 mg/kg, po administered in 10% solutol in D5W after 4 hrs; type: ADME, organism-based; parameters: dose 10 mg/kg, route oral
NCI-N87 = assay: Antiproliferative activity against human N87 cells overexpressing ErB2; type: functional, cell-based
[2] = target: T1, Receptor tyrosine-protein kinase erbB-2 (Homo sapiens, UniProt P04626); assay: Inhibition of human ErbB2
[3] = Plasma concentration in Sprague-Dawley rat at 10 mg/kg, po administered in 10% solutol in D5W after 1 hr; type: ADME, organism-based; parameters: dose 10 mg/kg, route oral
[4] = target: Epidermal growth factor receptor (Homo sapiens, UniProt P00533); assay: Inhibition of human EGFR expressed in SF9 cells
[5] = Plasma concentration in Sprague-Dawley rat at 10 mg/kg, po administered in 10% solutol in D5W after 0.5 hrs; type: ADME, organism-based; parameters: dose 10 mg/kg, route oral
BT-474 = assay: cells; conditions: Homo sapiens
Description: Antiproliferative activity against human BT474 cells overexpressing ErB2

[6] = target: T1, Receptor tyrosine-protein kinase erbB-2; assay: Inhibition of human ErB2 phosphorylation in human SKBR3 cells; type: cell-based, SK-BR-3
HeLa = assay: Antiproliferative activity against human HeLa cells; type: functional, cell-based
[7] = Plasma concentration in Sprague-Dawley rat at 10 mg/kg, po administered in 10% solutol in D5W after 2 hrs; type: ADME, organism-based; parameters: dose 10 mg/kg, route oral
SK-BR-3 = assay: Antiproliferative activity against human SKBR3 cells overexpressing ErB2; type: functional, cell-based
[8] = Plasma concentration in Sprague-Dawley rat at 10 mg/kg, po administered in 0.5% hydroxypropyl methylcellulose after 2 hrs; type: ADME, organism-based; parameters: dose 10 mg/kg, route oral
[9] = target: Tyrosine-protein kinase Lck (Homo sapiens) (UniProt P06239); assay: Inhibition of LCK at 3 uM
[10] = target: RAF proto-oncogene serine/threonine-protein kinase (Homo sapiens) (UniProt P04049); assay: Inhibition of c-Raf at 3 uM
[11] = Plasma concentration in Sprague-Dawley rat at 10 mg/kg, po administered in 0.5% hydroxypropyl methylcellulose after 0.5 hrs; type: ADME, organism-based; parameters: dose 10 mg/kg, route oral
[12] = Plasma concentration in Sprague-Dawley rat at 10 mg/kg, po administered in 0.5% hydroxypropyl methylcellulose after 1 hr; type: ADME, organism-based; parameters: dose 10 mg/kg, route oral

T1 sequence (P04626 whole entry): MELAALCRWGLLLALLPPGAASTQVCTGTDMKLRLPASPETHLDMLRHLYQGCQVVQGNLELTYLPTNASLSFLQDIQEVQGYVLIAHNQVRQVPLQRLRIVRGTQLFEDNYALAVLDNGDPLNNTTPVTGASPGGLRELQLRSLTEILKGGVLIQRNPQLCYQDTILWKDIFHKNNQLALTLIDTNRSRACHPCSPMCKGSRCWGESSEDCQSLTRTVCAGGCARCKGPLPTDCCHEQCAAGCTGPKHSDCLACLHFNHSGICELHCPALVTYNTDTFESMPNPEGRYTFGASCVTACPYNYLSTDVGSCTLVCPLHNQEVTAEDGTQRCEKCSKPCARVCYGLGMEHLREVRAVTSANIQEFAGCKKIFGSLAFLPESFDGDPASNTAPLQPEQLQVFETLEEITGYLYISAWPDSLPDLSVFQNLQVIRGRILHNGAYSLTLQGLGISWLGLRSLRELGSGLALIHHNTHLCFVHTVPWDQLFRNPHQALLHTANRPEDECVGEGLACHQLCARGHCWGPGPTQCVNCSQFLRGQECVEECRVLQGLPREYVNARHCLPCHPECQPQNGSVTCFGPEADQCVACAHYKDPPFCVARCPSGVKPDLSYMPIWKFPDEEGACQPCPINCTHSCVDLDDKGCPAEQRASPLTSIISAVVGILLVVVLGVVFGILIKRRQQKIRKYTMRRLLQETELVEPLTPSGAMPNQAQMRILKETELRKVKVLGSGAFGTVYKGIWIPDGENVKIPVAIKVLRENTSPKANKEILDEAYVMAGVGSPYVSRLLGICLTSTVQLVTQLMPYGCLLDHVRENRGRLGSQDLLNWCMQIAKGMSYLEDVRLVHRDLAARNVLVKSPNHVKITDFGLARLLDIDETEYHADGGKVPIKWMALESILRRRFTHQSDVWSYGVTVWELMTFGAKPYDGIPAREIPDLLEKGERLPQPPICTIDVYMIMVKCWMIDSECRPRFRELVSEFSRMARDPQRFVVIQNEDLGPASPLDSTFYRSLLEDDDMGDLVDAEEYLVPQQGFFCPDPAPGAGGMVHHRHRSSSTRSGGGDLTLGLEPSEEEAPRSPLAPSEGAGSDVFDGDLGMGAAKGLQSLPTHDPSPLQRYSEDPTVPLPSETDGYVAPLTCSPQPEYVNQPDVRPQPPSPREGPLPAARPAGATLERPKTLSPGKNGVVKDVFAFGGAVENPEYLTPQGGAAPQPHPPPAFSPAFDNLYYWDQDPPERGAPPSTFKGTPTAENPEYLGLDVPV
Chain of Epidermal growth factor receptor (P00533 whole entry): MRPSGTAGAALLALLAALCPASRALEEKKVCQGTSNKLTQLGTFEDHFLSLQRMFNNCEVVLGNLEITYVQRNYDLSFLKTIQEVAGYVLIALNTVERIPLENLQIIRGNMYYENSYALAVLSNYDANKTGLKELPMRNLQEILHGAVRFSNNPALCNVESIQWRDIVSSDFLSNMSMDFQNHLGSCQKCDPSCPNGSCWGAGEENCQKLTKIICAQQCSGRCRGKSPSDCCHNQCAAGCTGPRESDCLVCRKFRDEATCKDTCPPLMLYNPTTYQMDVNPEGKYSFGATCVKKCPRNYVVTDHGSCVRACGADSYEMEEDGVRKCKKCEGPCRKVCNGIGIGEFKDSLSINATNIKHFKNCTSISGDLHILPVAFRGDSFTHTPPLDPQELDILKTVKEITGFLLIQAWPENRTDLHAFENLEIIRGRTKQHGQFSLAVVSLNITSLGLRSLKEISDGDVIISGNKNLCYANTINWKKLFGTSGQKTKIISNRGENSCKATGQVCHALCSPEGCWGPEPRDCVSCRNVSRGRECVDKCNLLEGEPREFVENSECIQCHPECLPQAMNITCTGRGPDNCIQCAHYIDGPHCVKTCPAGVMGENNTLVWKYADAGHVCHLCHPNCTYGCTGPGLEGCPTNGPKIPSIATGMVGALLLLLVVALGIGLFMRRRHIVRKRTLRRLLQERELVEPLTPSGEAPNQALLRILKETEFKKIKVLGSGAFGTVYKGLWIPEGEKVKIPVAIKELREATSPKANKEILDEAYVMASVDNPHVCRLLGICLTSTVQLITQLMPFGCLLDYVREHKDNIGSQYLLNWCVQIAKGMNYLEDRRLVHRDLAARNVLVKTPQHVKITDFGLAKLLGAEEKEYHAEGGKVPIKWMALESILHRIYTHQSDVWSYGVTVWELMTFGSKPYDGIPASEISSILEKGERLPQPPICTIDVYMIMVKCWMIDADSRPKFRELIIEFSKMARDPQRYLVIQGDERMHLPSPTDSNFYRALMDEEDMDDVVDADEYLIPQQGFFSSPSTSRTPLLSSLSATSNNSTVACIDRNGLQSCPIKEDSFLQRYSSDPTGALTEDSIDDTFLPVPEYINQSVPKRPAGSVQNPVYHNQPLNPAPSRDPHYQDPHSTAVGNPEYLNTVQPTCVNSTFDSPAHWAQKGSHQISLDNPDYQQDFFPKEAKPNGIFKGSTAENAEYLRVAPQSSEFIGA
Chain of RAF proto-oncogene serine/threonine-protein kinase (Homo sapiens) (P04049 whole entry): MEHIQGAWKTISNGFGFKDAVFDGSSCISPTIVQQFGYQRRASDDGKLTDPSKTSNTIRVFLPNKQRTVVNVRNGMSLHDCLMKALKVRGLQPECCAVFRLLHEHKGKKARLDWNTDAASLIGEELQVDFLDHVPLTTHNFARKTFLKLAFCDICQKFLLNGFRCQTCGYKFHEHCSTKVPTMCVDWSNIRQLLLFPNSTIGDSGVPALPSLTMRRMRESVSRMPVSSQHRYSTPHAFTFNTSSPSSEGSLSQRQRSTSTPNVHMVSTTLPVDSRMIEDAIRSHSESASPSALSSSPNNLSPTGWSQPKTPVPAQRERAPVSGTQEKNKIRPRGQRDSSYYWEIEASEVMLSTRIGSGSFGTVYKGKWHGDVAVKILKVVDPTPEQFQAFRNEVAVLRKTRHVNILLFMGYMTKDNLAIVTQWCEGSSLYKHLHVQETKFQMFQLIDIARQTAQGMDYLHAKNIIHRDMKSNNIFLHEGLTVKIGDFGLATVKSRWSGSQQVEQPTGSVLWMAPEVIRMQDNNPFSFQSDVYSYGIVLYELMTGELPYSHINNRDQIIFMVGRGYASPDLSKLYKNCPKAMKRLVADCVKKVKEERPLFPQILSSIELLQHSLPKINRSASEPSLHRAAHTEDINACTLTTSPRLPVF
Chain of Tyrosine-protein kinase Lck (Homo sapiens) (P06239 2-509 limits assumed): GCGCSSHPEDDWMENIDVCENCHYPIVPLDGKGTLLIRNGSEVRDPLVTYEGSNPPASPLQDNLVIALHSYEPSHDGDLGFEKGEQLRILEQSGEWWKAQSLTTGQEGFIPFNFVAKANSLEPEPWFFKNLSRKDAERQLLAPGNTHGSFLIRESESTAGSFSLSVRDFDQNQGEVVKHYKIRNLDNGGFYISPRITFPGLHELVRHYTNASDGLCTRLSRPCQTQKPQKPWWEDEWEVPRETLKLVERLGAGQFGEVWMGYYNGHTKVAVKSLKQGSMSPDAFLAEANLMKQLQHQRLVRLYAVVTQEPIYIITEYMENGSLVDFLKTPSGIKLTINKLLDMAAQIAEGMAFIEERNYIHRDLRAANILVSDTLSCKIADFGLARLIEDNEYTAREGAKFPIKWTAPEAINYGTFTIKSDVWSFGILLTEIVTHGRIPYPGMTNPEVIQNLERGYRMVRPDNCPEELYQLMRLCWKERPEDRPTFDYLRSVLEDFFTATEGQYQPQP

SMILES | concentration at 4 h [1] [ng/mL] | IC50 [2] [nM] | concentration at 1 h [3] [ng/mL] | IC50 [4] [nM] | concentration at 0.5 h [5] [ng/mL] | IC50 (BT-474) [nM] | IC50 [6] [nM] | IC50 (HeLa) [nM] | concentration at 2 h [7] [ng/mL] | IC50 (SK-BR-3) [nM] | concentration at 2 h [8] [ng/mL] | inhibition [9] [%] | inhibition [10] [%] | concentration at 0.5 h [11] [ng/mL] | concentration at 1 h [12] [ng/mL] | IC50 (NCI-N87) [nM]
COC[C@H]1CCCN1/N=C/c1c(N)ncnc1Nc1ccc2c(cnn2Cc2cccc(F)c2)c1 | – | 72 | – | 31 | – | – | – | – | – | – | – | – | – | – | – | –
COC[C@@H]1CCCN1/N=C/c1c(N)ncnc1Nc1ccc2c(cnn2Cc2cccc(F)c2)c1 | – | 39 | – | 26 | – | – | 426 | – | – | – | – | – | – | – | – | –
COc1ccc(/N=C/c2c(N)ncnc2Nc2ccc3c(cnn3Cc3cccc(F)c3)c2)cc1 | – | 118 | – | 49 | – | – | 1290 | – | – | – | – | – | – | – | – | –
CN/N=C/c1c(N)ncnc1Nc1ccc2c(cnn2Cc2cccc(F)c2)c1 | – | 84 | – | 12 | – | – | 361 | – | – | – | – | – | – | – | – | –

Stronger by IC50 [2], values ahead:

concentration at 4 h [1] [ng/mL] | IC50 [2] [nM] | concentration at 1 h [3] [ng/mL] | IC50 [4] [nM] | concentration at 0.5 h [5] [ng/mL] | IC50 (BT-474) [nM] | IC50 [6] [nM] | IC50 (HeLa) [nM] | concentration at 2 h [7] [ng/mL] | IC50 (SK-BR-3) [nM] | concentration at 2 h [8] [ng/mL] | inhibition [9] [%] | inhibition [10] [%] | concentration at 0.5 h [11] [ng/mL] | concentration at 1 h [12] [ng/mL] | SMILES | IC50 (NCI-N87) [nM]
– | 20 | – | 52 | – | – | 258 | – | – | – | – | – | – | – | – | Nc1ncnc(Nc2ccc3c(cnn3Cc3cccc(F)c3)c2)c1/C=N/NCC(F)(F)F | –
– | 18 | – | – | – | 49 | 148 | > 10000 | – | 691 | 32.4 | 60 | 50 | 23.4 | 12.6 | Nc1ncnc(Nc2ccc3c(cnn3Cc3cccc(F)c3)c2)c1/C=N/N1CCCCC1 | 365
– | 8 | – | 9 | – | 14 | 54 | > 100000 | – | 58 | – | – | – | – | – | Nc1ncnc(Nc2ccc3c(cnn3Cc3cccc(F)c3)c2)c1/C=N/N1CCN(CCO)CC1 | 58
– | 8 | – | 16 | – | – | 509 | – | – | – | – | – | – | – | – | CN1CCN(/N=C/c2c(N)ncnc2Nc2ccc3c(cnn3Cc3cccc(F)c3)c2)CC1 | –
– | 7 | – | 16 | – | 31 | 83 | > 100000 | – | 122 | 1.5 | 71 | 47 | 26.1 | 21.6 | Nc1ncnc(Nc2ccc3c(cnn3Cc3cccc(F)c3)c2)c1/C=N/N1CCOCC1 | 91
4.6 | 2 | 6.3 | 8 | 10.1 | 63 | 105 | > 100000 | 13.2 | 148 | – | – | – | – | – | CN(C)/N=C/c1c(N)ncnc1Nc1ccc2c(cnn2Cc2cccc(F)c2)c1 | 131
